In the supplement of paper PMC10307832:

Experiments:
Experiment in all cases: relative viability (nuclei count vs DMSO), 5 days (fraction); higher = more cells survive
Vismodegib + Olaparib = compound: CS(=O)(=O)c1ccc(C(=O)Nc2ccc(Cl)c(-c3ccccn3)c2)c(Cl)c1 [Vismodegib] + O=C(c1cc(Cc2n[nH]c(=O)c3ccccc23)ccc1F)N1CCN(C(=O)C2CC2)CC1 [Olaparib] (partner 8 µM)
Summary of the method: (§1)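 Relative viability was taken as the ratio of nuclei in treated wells to nuclei in vehicle wells. Lung cancer cell lines in 1536-well plates received compounds by pin tool one day after seeding, either one drug alone or a fixed anchor-drug dose plus five library-drug doses (not always all listed) in √10 steps. Nuclei were counted on 4× images after 5 days of treatment, and values are medians of duplicate plates.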

Vismodegib + Pemetrexed = compound: CS(=O)(=O)c1ccc(C(=O)Nc2ccc(Cl)c(-c3ccccn3)c2)c(Cl)c1 [Vismodegib] + Nc1nc2[nH]cc(CCc3ccc(C(=O)N[C@@H](CCC(=O)O)C(=O)O)cc3)c2c(=O)[nH]1 [Pemetrexed] (partner 0.2 µM)
Summary of the method: as §1

VE-821 + Olaparib = compound: CS(=O)(=O)c1ccc(-c2cnc(N)c(C(=O)Nc3ccccc3)n2)cc1 [VE-821] + O=C(c1cc(Cc2n[nH]c(=O)c3ccccc23)ccc1F)N1CCN(C(=O)C2CC2)CC1 [Olaparib] (partner 8 µM)
Summary of the method: as §1

Vismodegib + Phenformin = compound: CS(=O)(=O)c1ccc(C(=O)Nc2ccc(Cl)c(-c3ccccn3)c2)c(Cl)c1 [Vismodegib] + N=C(N)NC(=N)NCCc1ccccc1 [Phenformin] (partner 250 µM)
Summary of the method: as §1

Cell Line | relative viability (Vismodegib + Olaparib; first compound 0.08 µM) | relative viability (Vismodegib + Olaparib; first compound 0.253 µM) | relative viability (Vismodegib + Olaparib; first compound 0.8 µM) | relative viability (Vismodegib + Olaparib; first compound 2.53 µM) | relative viability (Vismodegib + Olaparib; first compound 8 µM) | relative viability (Vismodegib + Pemetrexed; first compound 0.08 µM) | relative viability (Vismodegib + Pemetrexed; first compound 0.253 µM) | relative viability (Vismodegib + Pemetrexed; first compound 0.8 µM) | relative viability (Vismodegib + Pemetrexed; first compound 2.53 µM) | relative viability (Vismodegib + Pemetrexed; first compound 8 µM) | relative viability (VE-821 + Olaparib; first compound 0.08 µM) | relative viability (VE-821 + Olaparib; first compound 0.253 µM) | relative viability (VE-821 + Olaparib; first compound 0.8 µM) | relative viability (VE-821 + Olaparib; first compound 2.53 µM) | relative viability (VE-821 + Olaparib; first compound 8 µM) | relative viability (Vismodegib + Phenformin; first compound 0.08 µM) | relative viability (Vismodegib + Phenformin; first compound 0.253 µM) | relative viability (Vismodegib + Phenformin; first compound 0.8 µM) | relative viability (Vismodegib + Phenformin; first compound 2.53 µM) | relative viability (Vismodegib + Phenformin; first compound 8 µM)
CAL-12T | 0.81 | 0.691 | 0.411 | 0.757 | 0.713 | 1.12 | 1.13 | 1.13 | 1.14 | 1.13 | 0.869 | 0.73 | 0.816 | 0.691 | 0.549 | 0.641 | 0.584 | 0.578 | 0.561 | 0.578
NCI-H522 | 0.786 | 0.591 | 0.612 | 0.567 | 0.565 | 1.18 | 0.731 | 1.01 | 0.836 | 0.988 | 0.627 | 0.698 | 0.645 | 0.657 | 0.594 | 0.643 | 0.618 | 0.673 | 0.657 | 0.632
HARA | 0.786 | – | 0.945 | 0.856 | 0.943 | 0.243 | – | 0.303 | 0.263 | 0.242 | 0.695 | 0.798 | 0.583 | 0.387 | 0.391 | 0.47 | 0.355 | 0.537 | 0.503 | 0.415
NCI-H1666 | 0.679 | 0.747 | 0.727 | 0.732 | 0.749 | 0.852 | 0.912 | 0.836 | 0.843 | 0.925 | 0.758 | 0.742 | 0.839 | 0.944 | 0.79 | 0.557 | 0.587 | 0.535 | 0.517 | 0.565
NCI-H460 | 0.413 | 0.409 | 0.437 | 0.382 | 0.439 | 0.0652 | 0.0637 | 0.0589 | 0.0651 | 0.0689 | 0.52 | 0.378 | 0.231 | 0.138 | 0.118 | 0.516 | 0.512 | 0.561 | 0.508 | 0.595
NCI-H1792 | 0.381 | 0.412 | 0.527 | 0.349 | 0.376 | 0.927 | 0.881 | 0.673 | 0.773 | 0.698 | 0.632 | 0.507 | 0.364 | 0.417 | 0.201 | – | 0.318 | 0.254 | – | 0.41
NCI-H2087 | 0.582 | 0.594 | 0.607 | 0.594 | 0.508 | 0.692 | 0.657 | 0.651 | 0.643 | 0.657 | 0.784 | 0.64 | 0.67 | 0.583 | 0.462 | 0.45 | 0.445 | 0.427 | 0.45 | 0.399
NCI-H1355 | 0.721 | 0.716 | 0.781 | 0.807 | 0.722 | 0.985 | 1.06 | 0.959 | 1.02 | 1.01 | 0.822 | 0.719 | 0.66 | 0.716 | 0.351 | 0.455 | 0.474 | 0.462 | 0.458 | 0.401
